Data on 26 compounds can be found in ChEMBL document CHEMBL1127919 (Bioorg Med Chem Lett, 1994).

Active and inactive are the calls of the source. No cut-off for these calls is given here.

One assay concerns the target Melatonin receptor (Gallus gallus, UniProt P49288+P51050+P49285). The assay is described as follows: Binding affinity towards melatonin receptor was determined using 2-[125I]iodomelatonin as radioligand in chick brain membranes. Type of assay: cell membranes, Membrane.
For assay [1], the species on record is Xenopus laevis. The assay is described as follows: Agonistic activity was determined in a pigment aggregation model using cultured melanophores isolated from the neural crest of Xenopus laevis embryos; inactive. Type of assay: functional. To be noted: frog.
Assay [2] is filed under the species Xenopus laevis. The assay is described as follows: Agonistic activity was determined in a pigment aggregation model using cultured melanophores isolated from the neural crest of Xenopus laevis embryos. Format: functional. The note with it: frog; filed as agonist.
Assay [3] is filed under the species Xenopus laevis. Put plainly: Agonistic activity was determined in a pigment aggregation model using cultured melanophores isolated from the neural crest of Xenopus laevis embryos; partial agonist. Format: functional. The note with it: frog; filed as partial agonist.
The species named for assay [4] is Xenopus laevis. The assay is described as follows: Agonistic activity was determined in a pigment aggregation model using cultured melanophores isolated from the neural crest of Xenopus laevis embryos. Type of assay: functional, frog.
The species entered for assay [5] is Xenopus laevis. The assay is described as follows: Agonistic activity was determined in a pigment aggregation model using cultured melanophores isolated from the neural crest of Xenopus laevis embryos; mixed. Format: functional. The note with it: frog; filed as partial agonist.

For orientation: Ki means a measure of affinity in units of concentration, obtained from inhibition or displacement. Read a high Ki as a looser hold on the target. Regarding `O=C(NC1CCc2[nH]c3ccccc3c2C1)C(F)(F)F` (stereo not given), at Melatonin receptor, the Ki stood at 4630 nM.

For `CCC(Br)C(=O)NC1CCc2[nH]c3ccccc3c2C1` (stereo not given), the Ki on Melatonin receptor was over 10000 nM.

Turning to `CCCC(=O)NC1CCc2[nH]c3ccccc3c2C1` (stereo not given), at Melatonin receptor, the inhibition constant Ki was found to be 1060 nM. Besides, the result in the assay listed under Xenopus laevis [1] was inactive.

On to `COc1ccc2c(c1)c1c(n2C)CCCC1NC(=O)C(F)(F)F` (stereo not given), for which the Ki on Melatonin receptor stood at 1.98 nM. In addition, the Activity entry in the assay filed under Xenopus laevis [2] was “Agonist”.

What is called EC50 is the concentration needed to bring the measured effect to its halfway point. Higher therefore signals lower potency in that assay. In the case of `O=C(CBr)NC1CCc2[nH]c3ccccc3c2C1` (stereo not given), the inhibitory constant (Ki) at Melatonin receptor was 740 nM. The Activity entry in the assay listed under Xenopus laevis [3] was “Partial agonist”. The half-maximal effective concentration (EC50) in the assay listed under Xenopus laevis [4] is under 1000 nM.

Turning to `COc1ccc2[nH]c3c(c2c1)CC(NC(=O)C1CC1)CC3` (stereo not given), on Melatonin receptor, the Ki turned out to be 570 nM. Further, the Activity result in the assay filed under Xenopus laevis [2] was “Agonist”.

Regarding `CCCCC(=O)NC1CCCc2c1c1cc(OC)ccc1n2C` (stereo not given), the inhibition constant (Ki) on Melatonin receptor worked out at 82 nM. Further, the Activity result in the assay filed under Xenopus laevis [2] was “Agonist”.

As for `CCC(=O)NC1CCc2[nH]c3ccccc3c2C1` (stereo not given), on Melatonin receptor, the Ki is 436 nM. Moreover, in the assay filed under Xenopus laevis [3], the Activity result was “Partial agonist”. The EC50 in the assay filed under Xenopus laevis [4] is over 10000 nM.

In turn, `Cn1c2c(c3ccccc31)C(NC(=O)C1CC1)CCC2` (stereo not given) had a Ki at Melatonin receptor of 4460 nM. The Activity entry in the assay listed under Xenopus laevis [2] was “Agonist”.

For the compound `COc1ccc2[nH]c3c(c2c1)CC(NC(=O)C(F)(F)F)CC3` (stereo not given), the inhibition constant (Ki) at Melatonin receptor was determined as 102 nM.

At Melatonin receptor, `Cn1c2c(c3ccccc31)C(NC(=O)C(F)(F)F)CCC2` (stereo not given) came in with a Ki of 766 nM. In the assay listed under Xenopus laevis [2], the Activity entry is “Agonist”.

With `CCCCC(=O)NC1CCCc2c1c1ccccc1n2C` (stereo not given), the Ki at Melatonin receptor is over 10000 nM. The Activity entry in the assay listed under Xenopus laevis [2] was “Agonist”.

As to `CCC(=O)NC1CCc2[nH]c3ccc(OC)cc3c2C1` (stereo not given), the Ki at Melatonin receptor came out at 41 nM. This lies in the double-digit nanomolar range.

On to `COc1ccc2c(c1)c1c(n2C)CCCC1NC(=O)C1CC1` (stereo not given), for which the Ki at Melatonin receptor was 30 nM. For the same compound, in the assay filed under Xenopus laevis [2], the Activity entry is “Agonist”.

On to `CCC(=O)NC1CCCc2c1c1cc(OC)ccc1n2C` (stereo not given), for which the inhibition constant (Ki) at Melatonin receptor was 1.44 nM. Further, the Activity result in the assay filed under Xenopus laevis [2] was “Agonist”.

For the compound `CCCC(=O)NC1CCCc2c1c1ccccc1n2C` (stereo not given), the Ki at Melatonin receptor came to 215 nM. Besides, the Activity entry in the assay listed under Xenopus laevis [2] was “Agonist”.

As for `COc1ccc2c(c1)c1c(n2C)CCCC1NC(C)=O` (stereo not given), the inhibition constant (Ki) at Melatonin receptor is recorded as 0.97 nM. Moreover, the Activity result in the assay listed under Xenopus laevis [2] was “Agonist”.

`CCC(=O)NC1CCCc2c1c1ccccc1n2C` (stereo not given) yielded an inhibition constant Ki on Melatonin receptor of 204 nM. Moreover, in the assay filed under Xenopus laevis [2], the Activity entry is “Agonist”.

At Melatonin receptor, `COc1ccc2[nH]c3c(c2c1)CC(NC(C)=O)CC3` (stereo not given) had a Ki of 219 nM. For the same compound, in the assay listed under Xenopus laevis [2], the Activity entry is “Agonist”.

On to `CC(=O)NC1CCCc2c1c1ccccc1n2C` (stereo not given), for which, on Melatonin receptor, the Ki came out at 227 nM. In the assay listed under Xenopus laevis [2], the Activity result was “Agonist”.

`COc1ccc2c(c1)c(CCNC(C)=O)cn2C` had an inhibition constant Ki at Melatonin receptor of 254 nM. This lies in the sub-micromolar range.

For `CCCC(=O)NC1CCc2[nH]c3ccc(OC)cc3c2C1` (stereo not given), the inhibition constant (Ki) on Melatonin receptor is on record as 560 nM. Further, a half-maximal response in the assay filed under Xenopus laevis [4] (EC50) required 10000 nM. Besides, the Activity entry in the assay listed under Xenopus laevis [2] was “Agonist”.

With `CC(=O)NC1CCc2[nH]c3ccccc3c2C1` (stereo not given), on Melatonin receptor, the inhibition constant (Ki) is 5350 nM. That is a single-digit micromolar value.

In turn, `COc1ccc2c(c1)c1c(n2C)CCCC1NC(=O)C1CCC1` (stereo not given) showed a Ki on Melatonin receptor of 271 nM. The Activity result in the assay listed under Xenopus laevis [2] was “Agonist”.

Compound `CCCC(=O)NC1CCCc2c1c1cc(OC)ccc1n2C` (stereo not given) gave a Ki at Melatonin receptor of 0.378 nM. For the same compound, a half-maximal effect in the assay listed under Xenopus laevis [4] (EC50) was put at 2.5 nM. Besides, in the assay listed under Xenopus laevis [2], the Activity entry is “Agonist”.

At Melatonin receptor, `COc1ccc2[nH]c3c(c2c1)CC(NC(=O)CBr)CC3` (stereo not given) had a Ki of 8.3 nM. The Activity result in the assay filed under Xenopus laevis [5] is “Partial agonist”.
